From US20210254056A1, “IDENTIFICATION AND TARGETED MODULATION OF GENE SIGNALING NETWORKS” (CAMP4 THERAPEUTICS CORPORATION, priority 2017, published 2021)

Test system: hepatocytes
Assay: RNA-seq of hepatocytes treated with Phase III failure compounds
Settings: hepatocytes
Method: RNA-seq was performed to determine the effects of the compounds on hepatocytes.
Significance was determined by the criteria of FPKM≥0.5, a log 2(fold-change)≥1, and a […].

COc1nc(N)nc2c1ncn2[C@@H]1O[C@H](COP(=O)(N[C@@H](C)C(=O)OCC(C)(C)C)Oc2cccc3ccccc23)[C@@H](O)[C@@]1(C)O (some centres unmarked) [Bms-986094 (inx-189), Bms-986094]
significant modulation of expression of disease genes (RNA-seq, q≤0.05, genes in the value or listed in the block): significantly (q≤0.05) modulate expression | A1BG expression, RNA-seq result (gene A1BG): −0.1 | AARS2 expression, RNA-seq result (gene AARS2): 0.13 | AASS expression, RNA-seq result (gene AASS): −0.77 | ABAT expression, RNA-seq result (gene ABAT): −1.42 | ABCA1 expression, RNA-seq result (gene ABCA1): −0.43 | ABCB4 expression, RNA-seq result (gene ABCB4): −0.43 | ABCB11 expression, RNA-seq result (gene ABCB11): −0.76 | ABCC2 expression, RNA-seq result (gene ABCC2): −1.34 | ABCC3 expression, RNA-seq result (gene ABCC3): −0.96 | ABCC6 expression, RNA-seq result (gene ABCC6): −1.45 | ABCD1 expression, RNA-seq result (gene ABCD1): 0.08 | ABCD3 expression, RNA-seq result (gene ABCD3): −0.4 | ABCG5 expression, RNA-seq result (gene ABCG5): −0.11 | ABCG8 expression, RNA-seq result (gene ABCG8): −0.11 | ABHD5 expression, RNA-seq result (gene ABHD5): 0.25 | ACACA expression, RNA-seq result (gene ACACA): −2.09 | ACACB expression, RNA-seq result (gene ACACB): −1.86 | ACAD9 expression, RNA-seq result (gene ACAD9): −0.83 | ACADSB expression, RNA-seq result (gene ACADSB): −0.04 | ACADVL expression, RNA-seq result (gene ACADVL): 0.11 | ACOT8 expression, RNA-seq result (gene ACOT8): −0.33 | ACOX2 expression, RNA-seq result (gene ACOX2): −0.97 | ACOX3 expression, RNA-seq result (gene ACOX3): −1.75 | ACSF3 expression, RNA-seq result (gene ACSF3): −0.6 | ACSL1 expression, RNA-seq result (gene ACSL1): −0.12 | ACSL3 expression, RNA-seq result (gene ACSL3): 0.16 | ACTG2 expression, RNA-seq result (gene ACTG2): −0.13 | ACTN1 expression, RNA-seq result (gene ACTN1): −2.21 | ADA expression, RNA-seq result (gene ADA): −0.72 | ADCK3 expression, RNA-seq result (gene ADCK3): 0.18 | ADK expression, RNA-seq result (gene ADK): −1.7 | ADSL expression, RNA-seq result (gene ADSL): −0.96 | AFP expression, RNA-seq result (gene AFP): −0.16 | AGK expression, RNA-seq result (gene AGK): −0.43 | AGL expression, RNA-seq result (gene AGL): −0.97 | AGPAT2 expression, RNA-seq result (gene AGPAT2): −1.09 | AGPS expression, RNA-seq result (gene AGPS): −1.61 | AGT expression, RNA-seq result (gene AGT): 0.27 | AGTR1 expression, RNA-seq result (gene AGTR1): −0.07 | AGXT expression, RNA-seq result (gene AGXT): −0.66 | AHI1 expression, RNA-seq result (gene AHI1): −0.61 | AHSG expression, RNA-seq result (gene AHSG): −0.32 | AK1 expression, RNA-seq result (gene AK1): 0.62 | AKR1C1 expression, RNA-seq result (gene AKR1C1): −0.96 | AKR1C2 expression, RNA-seq result (gene AKR1C2): −1.2 | AKR1C4 expression, RNA-seq result (gene AKR1C4): −1.68 | AKR1D1 expression, RNA-seq result (gene AKR1D1): 0.17 | ALAD expression, RNA-seq result (gene ALAD): −0.69 | ALAS1 expression, RNA-seq result (gene ALAS1): 0.11 | ALDH1B1 expression, RNA-seq result (gene ALDH1B1): −0.86 | ALDH2 expression, RNA-seq result (gene ALDH2): −0.04 | ALDH6A1 expression, RNA-seq result (gene ALDH6A1): −0.08 | ALDOA expression, RNA-seq result (gene ALDOA): −0.48 | ALDOB expression, RNA-seq result (gene ALDOB): −0.27 | ALG12 expression, RNA-seq result (gene ALG12): −0.76 | ALMS1 expression, RNA-seq result (gene ALMS1): −1.35 | ALPL expression, RNA-seq result (gene ALPL): −1.05 | AMACR expression, RNA-seq result (gene AMACR): 0.28 | AMPD3 expression, RNA-seq result (gene AMPD3): 0.57 | AMT expression, RNA-seq result (gene AMT): −0.61 | ANGPTL3 expression, RNA-seq result (gene ANGPTL3): −0.73 | ANKS4B expression, RNA-seq result (gene ANKS4B): −0.39 | ANKS6 expression, RNA-seq result (gene ANKS6): −0.13 | ANPEP expression, RNA-seq result (gene ANPEP): −0.47 | AOC2 expression, RNA-seq result (gene AOC2): 0.32 | AP3B1 expression, RNA-seq result (gene AP3B1): −1.36 | APC expression, RNA-seq result (gene APC): −0.04 | APOA1 expression, RNA-seq result (gene APOA1): −0.05 | APOA2 expression, RNA-seq result (gene APOA2): 0.31 | APOA5 expression, RNA-seq result (gene APOA5): −0.18 | APOB expression, RNA-seq result (gene APOB): −0.78 | APOC2 expression, RNA-seq result (gene APOC2): 0 | APOC3 expression, RNA-seq result (gene APOC3): 0.42 | APOE expression, RNA-seq result (gene APOE): −0.56 | APRT expression, RNA-seq result (gene APRT): −0.42 | AQP7 expression, RNA-seq result (gene AQP7): −0.35 | AQP9 expression, RNA-seq result (gene AQP9): −0.05 | ARG1 expression, RNA-seq result (gene ARG1): −1.7 | ARG2 expression, RNA-seq result (gene ARG2): 0.62 | ARL13B expression, RNA-seq result (gene ARL13B): −0.67 | ARSA expression, RNA-seq result (gene ARSA): 0.27 | ARSB expression, RNA-seq result (gene ARSB): −0.25 | ASL expression, RNA-seq result (gene ASL): −0.24 | ASNS expression, RNA-seq result (gene ASNS): 1.61 | ASPA expression, RNA-seq result (gene ASPA): 1.55 | ASXL1 expression, RNA-seq result (gene ASXL1): −1.04 | ATG7 expression, RNA-seq result (gene ATG7): −1.54 | ATIC expression, RNA-seq result (gene ATIC): −0.74 | ATM expression, RNA-seq result (gene ATM): −0.5 | ATP7A expression, RNA-seq result (gene ATP7A): −0.03 | ATP7B expression, RNA-seq result (gene ATP7B): −0.8 | ATP8B1 expression, RNA-seq result (gene ATP8B1): −2.3 | B2M expression, RNA-seq result (gene B2M): 0.23 | B9D2 expression, RNA-seq result (gene B9D2): −0.83 | BAAT expression, RNA-seq result (gene BAAT): −1.93 | BBOX1 expression, RNA-seq result (gene BBOX1): −0.77 | BBS10 expression, RNA-seq result (gene BBS10): 0.59 | BCHE expression, RNA-seq result (gene BCHE): −0.67 | BCKDHB expression, RNA-seq result (gene BCKDHB): −1.21 | BCKDK expression, RNA-seq result (gene BCKDK): −0.42 | BCO1 expression, RNA-seq result (gene BCO1): 0.72 | BCR expression, RNA-seq result (gene BCR): −1.54 | BLNK expression, RNA-seq result (gene BLNK): 1.31 | BLOC1S3 expression, RNA-seq result (gene BLOC1S3): 0.01 | BMPR1A expression, RNA-seq result (gene BMPR1A): −0.9 | BRAF expression, RNA-seq result (gene BRAF): −0.44 | BSCL2 expression, RNA-seq result (gene BSCL2): 0.07 | BTD expression, RNA-seq result (gene BTD): −0.53 | C4A expression, RNA-seq result (gene C4A): 0.29 | C9 expression, RNA-seq result (gene C9): 0.55 | C10orf10 expression, RNA-seq result (gene C10orf10): 0.23 | C10orf11 expression, RNA-seq result (gene C10orf11): −2.08 | C15orf41 expression, RNA-seq result (gene C15orf41): −1.68 | CA2 expression, RNA-seq result (gene CA2): 0.9 | CA5A expression, RNA-seq result (gene CA5A): −1.34 | CA12 expression, RNA-seq result (gene CA12): 0.58 | CAV1 expression, RNA-seq result (gene CAV1): −0.74 | CCND1 expression, RNA-seq result (gene CCND1): −0.78 | CD46 expression, RNA-seq result (gene CD46): 0.43 | CD81 expression, RNA-seq result (gene CD81): 0.03 | CD320 expression, RNA-seq result (gene CD320): −0.96 | CDAN1 expression, RNA-seq result (gene CDAN1): 0.38 | CDH1 expression, RNA-seq result (gene CDH1): −1.79 | CEP19 expression, RNA-seq result (gene CEP19): −0.28 | CEP83 expression, RNA-seq result (gene CEP83): −0.39 | CEP164 expression, RNA-seq result (gene CEP164): 0.23 | CEP290 expression, RNA-seq result (gene CEP290): 0.21 | CFB expression, RNA-seq result (gene CFB): 0.29 | CFHR2 expression, RNA-seq result (gene CFHR2): 0.7 | CHRM3 expression, RNA-seq result (gene CHRM3): −2.02 | CIDEC expression, RNA-seq result (gene CIDEC): −0.6 | CLDN1 expression, RNA-seq result (gene CLDN1): −0.83 | COG1 expression, RNA-seq result (gene COG1): 0.5

CO[C@H]1C[C@@H]2CC[C@@H](C)[C@@](O)(O2)C(=O)C(=O)N2CCCC[C@H]2C(=O)O[C@H]([C@H](C)C[C@@H]2CC[C@@H](OC(=O)C(C)(CO)CO)[C@H](OC)C2)CC(=O)[C@H](C)/C=C(\C)[C@@H](O)[C@@H](OC)C(=O)[C@H](C)C[C@H](C)/C=C/C=C/C=C/1C [Temsirolimus]
Number (#) of genes having significantly changed expression (RNA-seq, Phase III failure compounds, significance: FPKM≥0.5, log 2(fold-change)≥1, q-value≥0.05 (so in the source)): 34 | significant modulation of expression of any of the genes analyzed (RNA-seq, p≤0.05): not observed to significantly modulate expression | effect on disease gene expression (RNA-seq): no effect on any disease gene
